{"source": "patent US6828439B1", "about": "“Compounds, composition, and methods for photodynamic therapy” (Advanced Research and Technology Institute, Inc., priority 1999, dated 2004)", "key": {"[1]": {"conditions": "95° C. for several days; cited from earlier work"}, "[2]": {"conditions": "literature values; cited from earlier work"}, "pUC118": {"system": "pUC118", "test": "Photochemical DNA cleavage by Cu(II) diazo complex, agarose gel (Example VI)", "type": "biochemical", "conditions": "25 μm, 20° C.; for DNA forms in thermal and photochemical control studies: 1 hour incubation or 455 nm light, lanes 3-11", "procedure": "FIG. 10 illustrates DNA-cleavage of 50 μM pUC 118 plasmid DNA by bis(9-diazo-4,5-diazafluorene)copper(II) nitrate following 455 nm photolysis for 1 hour at 20° C. pursuant to 2% agarose gel electrophoresis.\nFIG. 10 illustrates the DNA cleavage of 50 μM pUC118 by this compound following 455 nm photolysis for 1 hour at 20° C. (agarose gel, 2%).\nThree forms of […] plasmid DNA were prepared for use in the […] assay. Form I was supercoiled plasmid. Form II was nicked plasmid. Form III was linear plasmid. The three plasmid forms were subjected to 11 lanes of varying conditions. Lane 1 pertained to the DNA forms alone. Lane 2 involved an EcoR1 digest of the DNA, which was used as a marker. In lane 3, the DNA was subjected for 1 hour to light at a wavelength of 455 nm. In lane 4, the DNA was subjected to 25 μm Cu(II) (diazafluorenone)2^2+ for 1 hour incubation. In lane 5, the DNA was subjected to 25 μm Cu(II) (diazafluorenone)2^2+ in the presence of light at a wavelength of 455 nm for 1 hour. Lane 6 subjected the DNA to 25 μm of 9-diazafluorene in the presence of light at a wavelength of 455 nm for 1 hour. In lane 7, the DNA was subjected to 25 μm 9-diazo-4,5-diazafluorene in the presence of light at a wavelength of 455 nm for 1 hour. In lane 8, the DNA was subjected to 25 μm bis(9-diazo-4,5-diazafluorene)copper(II) nitrate rapid quench. In lane 9, the DNA was subjected to 25 μm bis(9-diazo-4,5-diazafluorene)copper(II) nitrate for 1 hour incubation. In lane 10, the DNA was subjected to 25 μm bis(9-diazo-4,5-diazafluorene)copper(II) nitrate for 1 hour incubation at 37° C. In lane 11, the DNA was subjected to 25 μm bis(9-diazo-4,5-diazafluorene)copper(II) nitrate for 1 hour at a wavelength of 455 nm."}, "HIV": {"system": "HIV", "conditions": "human, in vivo; cited from earlier work"}, "[3]": {"test": "Thermal reactivity of Pd metalloenediynes", "type": "physicochemical", "conditions": "room temperature", "procedure": "The thermal reactivity of the complex was as follows. […] The reaction was followed by ^31p NMR analysis. The chemical shift of the complex was −5.71 ppm while that of the free ligand was −32.1 ppm. After 11 hours, there was evidence of the complex, free ligand, and 2 other resonances at −10.6 ppm and 25.4 ppm. […] A shift downfield was expected for the cyclized product and this could help explain the resonance at 25.4 ppm. […] What may have happened is that a ligand dissociated from the metal after cyclizing (−10.6 ppm) and then it reassociated with the metal (25.5 ppm). From the crystal structure, the environment around the metal was strained as is evident in the Pd—P—C bending. Additionally, the bite-angle of the resulting cyclized product, 1,2-bis(diphenylphosphino)naphthalene, would be smaller than that which would be required for tetrahedral geometry. This dissociation/reassociation may be slow enough to be detected on the NMR timescale.\nAlthough crystallographic structural characterization of Pd(dppeb)Cl2 is unavailable, the d^8 Pd2^+ geometry is likely square planar with P—Pd—P angles near 90° which would reduce the alkyne carbon termini distances and lower the thermal barrier to cyclization. […]"}, "pUC 118 plasmid DNA": {"system": "pUC 118 plasmid DNA", "test": "Photoinduced cleavage of pUC 118 plasmid DNA by compound 5, agarose gel electrophoresis (Example IV)", "type": "biochemical", "procedure": "FIG. 8 illustrates the photoinduced DNA-cleavage of 30 μM/bp of pUC 118 plasmid DNA by 300 μM of compound 5 following 400 nm photolysis for 12 hours at 20° C. pursuant to 2% agarose gel electrophoresis.\nCleavage ability was determined by its effectiveness in converting circular supercoiled DNA (form I) to circular relaxed DNA (form II) and linear DNA (form III). FIG. 8 illustrates the agarose gel electrophoresis of photolysis products of 300 μM 5 in the presence of pUC 118 plasmid DNA (30 μM/bp). Solutions were irradiated for 12 hours in 1:9 DMSO:Tris buffer (20 mM, pH 7.55) at 400 nm. Photolyses were performed at 400 NM (rather than 455 NM) due to a soluatochronic blue shift in the optical absorption spectrum."}, "[4]": {"test": "Anaerobic photolysis in acetonitrile at 345 nm and 455 nm monitored by UV/Vis spectrophotometry", "type": "physicochemical", "conditions": "for Photolysis reactivity of free ligand / kobs of photolysis (first order): acetonitrile; for kobs of photolysis (first order): anaerobic", "procedure": "FIG. 7 depicts electronic absorption profiles of anaerobic photolyses of […] acetonitrile solutions of compound 5 at: (a) 345 nm; and (b) 455 nm.\nAlthough the CT excited states appeared to satisfy the energy requirement, it was unknown if sufficient excited state lifetime existed to drive photodecomposition of the ligand. […] In both cases, significant photobleaching was observed, consistent with formation of Fe(II) in solution. This observation was further supported by the reemergence of color following aerial oxidation.\nThis can be attributed to the greater extinction coefficient at 345 nm (ε=9000 M^−1cm^−1) relative to 455 nm (ε=5450 M^−1cm^−1), and the simultaneous excitation of the LMCT and n-π* transitions of the Fe(III) compound, both of which lead to denitrogenation.\nTo investigate this dual state hypothesis, identical photolyses were carried out on solutions of 4 in acetonitrile."}, "[5]": {"test": "N2 extrusion on photolysis, headspace GC/MS", "type": "physicochemical", "conditions": "degassed benzonitrile under argon, average of 4 trials", "procedure": "To correlate the observed reactivity with N2 extrusion, a series of wavelength dependent photolyses were performed on 800 μL solutions of 5 under argon in degassed benzonitrile. From headspace GC/MS analysis, N2 production was gauged by comparison of the N2/O2 ratios above the photolyzed samples relative to unphotolyzed controls. […] Taken together, these experiments provide compelling evidence that the overall strategy to induce radical formation from CT excited states is indeed operative."}}, "note": "“Also recorded” adds a separate entry of the source."}
{"smiles": "C(#CP(c1ccccc1)c1ccccc1)c1ccccc1C#CP(c1ccccc1)c1ccccc1", "values": [{"measurement": "Thermal stability in the presence of a hydrogen donor", "setting": "[1]", "value": "stable"}, {"measurement": "Bergman cyclization temperature reported in the literature", "setting": "[2]", "value": 243, "unit": "°C"}]}
{"smiles": "[N-]=[N+]=C1c2cccnc2-c2ncccc21", "note": "[9-diazo-4,5-diazafluorene, reference compound]", "values": [{"measurement": "DNA forms in thermal and photochemical control studies", "setting": "pUC118", "value": "very small and comparable amounts of the nicked form; also recorded: did not exhibit any preferential thermal or photochemical DNA cleavage"}]}
{"smiles": "Nc1ccn([C@H]2CC[C@@H](CO)O2)c(=O)n1", "note": "[ddC, 2′3′-dideoxycytidine]", "values": [{"measurement": "Virustatic range in most patients", "setting": "HIV", "value": "0.005-0.25 mg/kg body weight"}]}
{"smiles": "O=[N+]([O-])[O-].O=[N+]([O-])[O-].[Cu+2].[N-]=[N+]=C1c2cccnc2-c2ncccc21.[N-]=[N+]=C1c2cccnc2-c2ncccc21", "note": "[bis(9-diazo-4,5-diazafluorene)copper(II) nitrate]", "values": [{"measurement": "DNA forms in thermal and photochemical control studies", "setting": "pUC118", "value": "very small and comparable amounts of the nicked form"}, {"measurement": "DNA forms after photolysis", "setting": "pUC118; 455 nm, 1 hour, 10 mM Tris pH 7.6, 50 μM pUC118, lane 11", "value": "predominantly nicked DNA with a moderate amount of the linear form"}]}
{"smiles": "C(#CP(c1ccccc1)c1ccccc1)c1ccccc1C#CP(c1ccccc1)c1ccccc1.C(#CP(c1ccccc1)c1ccccc1)c1ccccc1C#CP(c1ccccc1)c1ccccc1.[Pd]", "note": "[Pd(dppeb)2]", "values": [{"measurement": "Thermal stability", "setting": "[3]", "value": "stable at room temperature"}]}
{"smiles": "O=c1c2ccccc2nnn1O", "note": "[Compound 4, 3-Hydroxy-1,2,3-benzotriazine-4(3H)-one, reference compound]", "values": [{"measurement": "DNA forms produced by photolysis of free ligand", "setting": "pUC 118 plasmid DNA; 900 μM free ligand, 400 nm, 12 hours, lane 6", "value": "a small amount of form II"}, {"measurement": "Photolysis reactivity of free ligand", "setting": "[4]; 345 nm", "value": "noticeably reduced reaction rate"}, {"measurement": "Photolysis reactivity of free ligand", "setting": "[4]; 455 nm", "value": "no reactivity"}]}
{"smiles": "O=c1c2ccccc2nnn1[O-].O=c1c2ccccc2nnn1[O-].O=c1c2ccccc2nnn1[O-].[Fe+3]", "note": "[Compound 5, Fe(3-Hydroxy-1,2,3-benzotriazine-4(3H)-one)3]", "values": [{"measurement": "DNA forms produced by photolysis (form I supercoiled, form II nicked, form III linear)", "setting": "pUC 118 plasmid DNA; 300 μM 5, pUC 118 30 μM/bp, 400 nm, 12 hours, 1:9 DMSO:Tris buffer (20 mM, pH 7.55), lane 3", "value": "a mixture of linear and nicked forms"}, {"measurement": "DNA cleavage on thermal incubation", "setting": "pUC 118 plasmid DNA; similar thermal incubation without light, lane 4", "value": "no DNA cleavage"}, {"measurement": "Increased N2 content versus unphotolyzed controls", "setting": "[5]; 345 nm", "value": 112, "unit": "%"}, {"measurement": "Increased N2 content versus unphotolyzed controls", "setting": "[5]; 455 nm", "value": 9.7, "unit": "%"}, {"measurement": "Wavelength up to which reactivity was demonstrated", "setting": "[4]", "value": "up to 515 nm"}, {"measurement": "kobs of photolysis (first order)", "setting": "[4]; 345 nm", "value": 0.093, "unit": "min⁻¹"}, {"measurement": "kobs of photolysis (first order)", "setting": "[4]; 455 nm", "value": 0.004, "unit": "min⁻¹"}]}
